Results taken from US20160221989A1, “N-Acylpyrrolidine Ether Tropomyosin-Related Kinase Inhibitors” (Pfizer Inc., priority 2014, published 2016).

Molecular target: T1, TRKA (Homo sapiens, UniProt P04629)
T1 construct: aa 441-; 4 nM; 40 uM; 35 min; (NTRK1); 796; His; purchased Invitrogen PV3144
Experiment: Isolated TRK enzyme assay (HTRF KinEASE-TK kit, PV3144 TrkA enzyme assay)
Format: biochemical
Conditions: recombinant His-tagged cytoplasmic domain aa 441-796, 4 nM enzyme, 40 uM ATP, 35 min, arithmetic mean where more than one reading
Procedure: Isolated TRK Enzyme assays use the HTRF KinEASE-TK kit (Cisbio Cat#62TKOPEJ) with recombinant His-tagged cytoplasmic domains of TRKA receptor sourced from Invitrogen (see table below). This activity-assay measures the phosphorylation of tyrosine residues within a substrate from the HTRF kit which has been validated by Cisbio for a variety of tyrosine kinases including the TRK receptors.
0.5 mM stock solutions of test compounds are prepared and serially diluted in 100% DMSO. […] Greiner low volume black plates containing 0.2 ul of serially diluted compound, standard and HPE/ZPE are created using the Bravo nanolitre dispenser. 1× enzyme buffer is prepared from 5× Enzymatic Buffer from the Cisbio KinEASE TK kit using MilliQ water. The buffer is then supplemented with 10 mM MgCl and 2 mM DTT (both from Sigma). […] 2×FAC of enzyme and 2×FAC ATP diluted in 1× complete enzyme buffer is incubated at room temperature for 20 minutes to preactivate the enzyme. Following this preactivation step, 5 ul/well of enzyme+ATP mix is added using a Multidrop Micro to the assay plate, spotted with 0.2 ul 100% DMSO compound. This is left for 20 mins at room temperature before adding 5 ul of 2 uM TK-substrate-Biotin (from the Cisbio kit) diluted in 1× enzyme buffer (1 uM FAC) using the Multidrop Micro. The reaction is incubated at room temperature for the optimized assay reaction time (see table).
After the Detection Reagent addition, plates are covered and incubated at room temperature for 60 minutes. HTRF signal is read using an Envision reader, measured as a ratio of emissions at two different wavelengths, 620 nm and 665 nm. […] Test compound data are expressed as percentage inhibition defined by HPE and ZPE values for each plate.
Percentage inhibition in the presence of test compound is plotted against compound concentration on a log scale to determine an IC50 from the resultant sigmoid curve. Cell Based Assays were carried out using Cell lines from DiscoveRx utilising their PathHunter technology and reagents in an antagonist assay:
Where more than one reading was taken, the arithmetic mean is presented.

T1 sequence (P04629 441-796): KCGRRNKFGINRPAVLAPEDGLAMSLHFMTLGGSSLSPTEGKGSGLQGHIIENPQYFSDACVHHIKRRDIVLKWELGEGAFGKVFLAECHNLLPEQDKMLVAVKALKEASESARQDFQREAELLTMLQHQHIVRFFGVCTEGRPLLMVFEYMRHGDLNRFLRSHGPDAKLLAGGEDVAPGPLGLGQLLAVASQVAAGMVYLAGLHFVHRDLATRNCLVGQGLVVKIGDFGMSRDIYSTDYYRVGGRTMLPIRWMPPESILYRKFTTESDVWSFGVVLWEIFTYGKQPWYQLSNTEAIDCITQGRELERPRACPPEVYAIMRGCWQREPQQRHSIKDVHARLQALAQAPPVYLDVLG

| Structure (SMILES) | IC50 |
| --- | --- |
| CC(C)(O)CNC(=O)c1cnc(N)c(OC2CN(C(=O)Cc3ccc(OC(F)(F)F)cc3)CC2(F)F)c1 (racemic) [Example 10, (S)-6-amino-5-[(4,4-difluoro-1-{[4-(trifluoromethoxy)phenyl]acetyl}pyrrolidin-3-yl)oxy]-N-(2-hydroxy-2-methylpropyl)pyridine-3-carboxamide] | 8660 nM |
| NC(=O)c1cnc(N)c(OCC2CN(C(=O)Cc3ccc(OC(F)(F)F)cc3)CC2(F)F)c1 (racemic) [Example 13, Racemic-6-amino-5-[(4,4-difluoro-1-{[4-(trifluoromethoxy)phenyl]acetyl}pyrrolidin-3-yl)methoxy]pyridine-3-carboxamide] | 30.3 nM |
| CNC(=O)c1cnc(N)c(OC2CN(C(=O)Cc3ccc(OC(F)(F)F)cc3)CC2(C)OC)c1 (racemic) [Example 24, Racemic-6-amino-5-[(4-methoxy-4-methyl-1-{[4-(trifluoromethoxy)phenyl]acetyl}pyrrolidin-3-yl)oxy]-N-methylpyridine-3-carboxamide] | 55.5 nM |
| CCN(CC)C(=O)c1cnc(N)c(OC2CN(C(=O)Cc3ccc(OC(F)(F)F)cc3)CC2(C)OC)c1 (racemic) [Example 25, Racemic-6-amino-N,N-diethyl-5-[(4-methoxy-4-methyl-1-{[4-(trifluoromethoxy)phenyl]acetyl}pyrrolidin-3-yl)oxy]pyridine-3-carboxamide] | 129 nM |
| NC(=O)c1cnc(N)c(COC2CN(C(=O)Cc3ccc(OC(F)(F)F)cc3)CC2(F)F)c1 (single isomer, unassigned) [Example 5] | 10.8 nM |
| NC(=O)c1cnc(N)c(COC2CN(C(=O)Cc3ccc(OC(F)(F)F)cc3)CC2(F)F)c1 (single isomer, unassigned) [Example 6] | 630 nM |
| Nc1ncc(C(=O)NCCO)cc1OC1CN(C(=O)Cc2ccc(OC(F)(F)F)cc2)CC1(F)F (single isomer, unassigned) [Example 8] | 148 nM |
| CNC(=O)c1cnc(N)c(OCC2CN(C(=O)Cc3ccc(OC(F)(F)F)cc3)CC2(F)F)c1 (single isomer, unassigned) [Example 11] | 11.6 nM |
| CNC(=O)c1cnc(N)c(OCC2CN(C(=O)Cc3ccc(OC(F)(F)F)cc3)CC2(F)F)c1 (single isomer, unassigned) [Example 12] | 1250 nM |
| NC(=O)c1cnc(N)c(OCC2CN(C(=O)Cc3ccc(OC(F)(F)F)cc3)CC2(F)F)c1 (single isomer, unassigned) [Example 15] | 15.8 nM |
| CNC(=O)c1cnc(N)c(OC2CN(C(=O)Cc3ccc(OC(F)(F)F)cc3)CC23CC3)c1 (stereo not drawn) [Example 16, 6-amino-N-methyl-5-[(5-{[4-(trifluoromethoxy)phenyl]acetyl}-5-azaspiro[2.4]hept-7-yl)oxy]pyridine-3-carboxamide] | 72.4 nM |
| CNC(=O)c1cnc(N)c(O[C@H]2CN(C(=O)Cc3ccc(OC(F)(F)F)cc3)C[C@@H]2C)c1 [Example 17, (3R,4S)-6-amino-N-methyl-5-[(4-methyl-1-{[4-(trifluoromethoxy)phenyl]acetyl}pyrrolidin-3-yl)oxy]pyridine-3-carboxamide] | 105 nM |
| NC(=O)c1cnc(N)c(OC2CN(C(=O)Cc3ccc(OC(F)(F)F)cc3)CC23CC3)c1 (stereo not drawn) [Example 18, 6-amino-5-[(5-{[4-(trifluoromethoxy)phenyl]acetyl}-5-azaspiro[2.4]hept-7-yl)oxy]pyridine-3-carboxamide] | 110 nM |
| CC1(C)CN(C(=O)Cc2ccc(OC(F)(F)F)cc2)C[C@@H]1Oc1cc(C(N)=O)cnc1N [Example 19, (R)-6-amino-5-[(4,4-dimethyl-1-{[4-(trifluoromethoxy)phenyl]acetyl}pyrrolidin-3-yl)oxy]pyridine-3-carboxamide] | 11.8 nM |
| CNC(=O)c1cnc(N)c(O[C@H]2CN(C(=O)Cc3ccc(OC(F)(F)F)cc3)CC2(C)C)c1 [Example 20, (R)-6-amino-5-[(4,4-dimethyl-1-{[4-(trifluoromethoxy)phenyl]acetyl}pyrrolidin-3-yl)oxy]-N-methylpyridine-3-carboxamide] | 12.3 nM |
| CCNC(=O)c1cnc(N)c(O[C@H]2CN(C(=O)Cc3ccc(OC(F)(F)F)cc3)C[C@@H]2C)c1 [Example 21, (3R,4S)-6-amino-N-ethyl-5-[(4-methyl-1-{[4-(trifluoromethoxy)phenyl]acetyl}pyrrolidin-3-yl)oxy]pyridine-3-carboxamide] | 126 nM |
| C[C@H]1CN(C(=O)Cc2ccc(OC(F)(F)F)cc2)C[C@@H]1Oc1cc(C(=O)NCC#N)cnc1N [Example 22, (3R,4S)-6-amino-N-(cyanomethyl)-5-[(4-methyl-1-{[4-(trifluoromethoxy)phenyl]acetyl}pyrrolidin-3-yl)oxy]pyridine-3-carboxamide] | 330 nM |
| C[C@H]1CN(C(=O)Cc2ccc(OC(F)(F)F)cc2)C[C@@H]1Oc1cc(C(=O)NCC(C)(C)O)cnc1N [Example 23, (3R,4S)-6-amino-N-(2-hydroxy-2-methylpropyl)-5-[(4-methyl-1-{[4-(trifluoromethoxy)phenyl]acetyl}pyrrolidin-3-yl)oxy]pyridine-3-carboxamide] | 2100 nM |
